Experimental findings from patent publication US4440779A, “Tricyclic derivatives of substituted pyrrole acids as analgesic and anti-inflammatory agents” (Merck & Co., Inc., priority 1982, dated 1984) are described below.

The test system of data set [1] is edema induced by carragenin in rat foot. In words: rat foot edema assay (carragenin-induced edema, C.F.E.). The class given is in vivo, rat (Sprague Dawley). The note with it: 1 h before carragenin, read at 3 h; for inhibition in vivo at 3 mg/kg: 3 mg/kg oral; for inhibition in vivo at 10 mg/kg: 10 mg/kg oral; for inhibition in vivo at 20 mg/kg: 20 mg/kg oral; for inhibition in vivo at 30 mg/kg: 30 mg/kg oral. The method, then:
The rat foot edema assay for determining anti-inflammatory activity is based on the ability of the compounds of Formula I to inhibit the edema induced by the injection of an inflammatory (phlogistic) agent into the tissues of the foot of a rat. Several groups of six male rats (Sprague Dawley strain, 150±30 g each) are given orally the compounds to be tested one hour before 0.1 ml of a 1% suspension of carragenin in 0.5% methocel is injected into the planar surface of each rat's right hind paws. Immediately and again three hours later, the foot volume is measured and recorded. The difference between the initial and final volumes is a measurement of the edema produced. Usually the compounds to be tested are suspended or dissolved in 0.5% methocel, and their activities measured against that produced by a known anti-inflammatory agent e.g., zomepirac (U.S. Pat. No. 3,952,012) according to standard procedure. The activity of a tested compound is also compared with that produced by a "control" rat which receives only the methocel solution. A test of 3 mg/kg, 10 mg/kg plus one dose of 30 mg/kg are usually given.

Data set [2] deals with gastric mucosa. In words: Gastric Hemorrhage Lesion Formation Assay (GHLF). The note with it: fasted, 4 h. The data set is classed as in vivo, rat (Sprague-Dawley). The method, then:
In other words, they induce less gastric irritation than Zompirac. The GHLF test is conducted according to the following procedure:
Rats (Sprague-Dawley, Males, 120-180 gm) are fasted overnight and dosed orally with drug suspended in 0.5% methylcellulose. The drug concentration is adjusted so that each animal received 1.0 ml/100 gm body weight. Four hours later the animals are killed by asphixiation in carbon dioxide, the stomachs removed, cut open and everted. The mucosal lining is washed and examined under 3X magnification. The lesions are identified as perforations of the gastric mucosa, many of which perforate right through the wall of the stomach.
The results are expressed in two ways, the average number of lesions per stomach, and the number of animals in the group showing at least one lesion.

The inhibition in vivo is the percentage by which the read-out fell short of the control.

Structures are written as SMILES.

In data set [1], `Cc1ccc2c(c1)OCc1cc(CC(=O)O)n(C)c1C2=O` [7-CH3 / OCH2 / H, 1,7-dimethyl-4,10-dihydro-10-oxo-1H[1]benzoxepino[4,3-b]-pyrrole-2-acetic acid] showed an inhibition in vivo at 3 mg/kg of 32.1%, an inhibition in vivo at 10 mg/kg of 39.9% and an inhibition in vivo at 20 mg/kg of 42.6%. For the same molecule, in data set [2] (30 mg/kg oral), the Animals with lesions is on record as 0/6 and the “Ave. lesions per animal” value is 0. In data set [2] (60 mg/kg oral), the Animals with lesions is 1/6 and the “Ave. lesions per animal” value was 0.16. In data set [2] (90 mg/kg oral), the Animals with lesions is recorded as 2/6 and the “Ave. lesions per animal” value is 0.33. Also, in data set [2] (120 mg/kg oral), the Animals with lesions was 4/6 and the “Ave. lesions per animal” value came out at 3.3.
For `Cn1c(CC(=O)O)cc2c1C(=O)c1ccc(F)cc1OC2` [7-F / OCH2 / H], in data set [1], the inhibition in vivo at 10 mg/kg came to 31% and the inhibition in vivo at 30 mg/kg came out at 40%.
For the molecule `Cn1c(CC(=O)O)cc2c1C(=O)c1ccc(Cl)cc1CC2` [7-Cl / CH2CH2 / H], in data set [1], the inhibition in vivo at 3 mg/kg amounted to 29.9%, 10 mg/kg produced 41.5% inhibition in vivo and the inhibition in vivo at 30 mg/kg came to 57.5%. For the same molecule, in data set [2] (100 mg/kg oral), the Animals with lesions is 1/5 and the “Ave. lesions per animal” value is reported as 0.2. In data set [2] (300 mg/kg oral), the Animals with lesions is reported as 0/5 and the “Ave. lesions per animal” value is recorded as 0. In data set [2] (600 mg/kg oral), the Animals with lesions was 4/5 and the “Ave. lesions per animal” value turned out to be 1.8.
`Cn1c(CC(=O)O)cc2c1C(=O)c1ccc(Cl)cc1CO2` [7-Cl / CH2O / H] had an inhibition in vivo at 20 mg/kg in data set [1] of 50%.
In data set [1], `COc1ccc2c(c1)OCc1cc(CC(=O)O)n(C)c1C2=O` [7-OCH3 / OCH2 / H, 7-methoxy-4,10-dihydro-1-methyl-10-oxo-1H[1]-benzoxepino[4,3-b]pyrrole-2-acetic acid] came in with an inhibition in vivo at 3 mg/kg of 44% and an inhibition in vivo at 30 mg/kg of 61%. Besides, in data set [2] (90 mg/kg oral), the Animals with lesions is 2/6 and the “Ave. lesions per animal” value is 1.0. In addition, in data set [2] (120 mg/kg oral), the Animals with lesions is reported as 4/6 and the “Ave. lesions per animal” value is 4.0.
`Cn1c(CC(=O)O)cc2c1C(=O)c1ccc(Cl)cc1SC2` [7-Cl / SCH2 / H, 7-Chloro-4,10-dihydro-1-methyl-10-oxo-1H-[1]benzothiepino[4,3-b]pyrrole-2-acetic acid] had an inhibition in vivo at 30 mg/kg in data set [1] of 51%.
Still for that read-out and setting: to `CC(C(=O)O)c1cc2c(n1C)C(=O)c1ccc(Cl)cc1OC2` (stereo not shown) [7-Cl / OCH2 / CH3] belongs 60%.
On to `Cn1c(CC(=O)O)cc2c1C(=O)c1ccc(Cl)cc1OC2` [7-Cl / OCH2 / H, 7-chloro-4,10-dihydro-1-methyl-10-oxo-1H-[1]benzoxepino[4,3-b]pyrrole-2-acetic acid], for which, in data set [1], the inhibition in vivo at 3 mg/kg was found to be 46%, the inhibition in vivo at 10 mg/kg came out at 64% and the inhibition in vivo at 30 mg/kg came to 54%. For the same molecule, in data set [2] (60 mg/kg oral), the Animals with lesions is 0/6 and the “Ave. lesions per animal” value is listed as 0. In data set [2] (90 mg/kg oral), the Animals with lesions is 5/6 and the “Ave. lesions per animal” value is given as 5.0.
In data set [1], `CC(C(=O)O)c1cc2c(n1C)C(=O)c1ccc(Cl)cc1CC2` (stereo not drawn) [7-Cl / CH2CH2 / CH3, 1,4,5,10-Tetrahydro-7-chloro-1,α-dimethyl-10-oxobenzocyclohepta[1,2-b]pyrrole-2-acetic acid] came in with an inhibition in vivo at 20 mg/kg of 36.8% and an inhibition in vivo at 30 mg/kg of 59%.
